Test results taken from ChEMBL document CHEMBL4118098, “Discovery of DS28120313 as a potent orally active hepcidin production inhibitor: Design and optimization of novel 4,6-disubstituted indazole derivatives” (Bioorg Med Chem Lett, 2017).
Each block holds one molecule with its values, some of them ahead of it.

Legend:
[1] = biological target: Serine/threonine-protein kinase Nek9 (Homo sapiens) (UniProt Q8TD19); test: Inhibition of NEK9 (unknown origin) at 0.19 uM relative to control
[2] = biological target: Serine/threonine-protein kinase DCLK2 (Homo sapiens) (UniProt Q8N568); test: Inhibition of DCAMKL2 (unknown origin) at 0.19 uM relative to control
[3] = biological target: Interleukin-1 receptor-associated kinase 4 (Homo sapiens) (UniProt Q9NWZ3); test: Inhibition of IRAK4 (unknown origin) at 0.19 uM relative to control
[4] = biological target: NT-3 growth factor receptor (Homo sapiens) (UniProt Q16288); test: Inhibition of TRKC (unknown origin) at 0.19 uM relative to control
[5] = system: Receptor-type tyrosine-protein kinase FLT3 (Homo sapiens), P36888 [D835Y]; test: Inhibition of Flt3 D835Y mutant (unknown origin) at 0.19 uM relative to control
[6] = system: Epidermal growth factor receptor (Homo sapiens), P00533 [T790M]; test: Inhibition of EGFR T790M mutant (unknown origin) at 0.19 uM relative to control
[7] = biological target: Casein kinase I isoform gamma-2 (Homo sapiens) (UniProt P78368); test: Inhibition of CK1-gamma2 (unknown origin) at 0.19 uM relative to control
[8] = biological target: Dual specificity tyrosine-phosphorylation-regulated kinase 1B (Homo sapiens) (UniProt Q9Y463); test: Inhibition of DYRK1B (unknown origin) at 0.19 uM relative to control
[9] = system: Receptor-type tyrosine-protein kinase FLT3 (Homo sapiens), P36888 [D835Y]; test: Inhibition of Flt3 D835Y mutant (unknown origin) at 0.164 uM relative to control
[10] = biological target: High affinity nerve growth factor receptor (Homo sapiens) (UniProt P04629); test: Inhibition of TRKA (unknown origin) at 0.164 uM relative to control
[11] = biological target: Tyrosine-protein kinase Mer (Homo sapiens) (UniProt Q12866); test: Inhibition of Mer (unknown origin) at 0.164 uM relative to control
[12] = biological target: Epidermal growth factor receptor (Homo sapiens) (UniProt P00533); test: Inhibition of EGFR (unknown origin) at 0.164 uM relative to control
[13] = biological target: cAMP-dependent protein kinase catalytic subunit PRKX (Homo sapiens) (UniProt P51817); test: Inhibition of PRKX (unknown origin) at 0.164 uM relative to control
[14] = biological target: STE20-like serine/threonine-protein kinase (Homo sapiens) (UniProt Q9H2G2); test: Inhibition of SLK (unknown origin) at 0.164 uM relative to control
[15] = biological target: AMP-activated protein kinase, AMPK (Homo sapiens) (UniProt P54646+O43741+P54619+Q9UGJ0+Q9Y478+Q13131+Q9UGI9); test: Inhibition of AMPK (unknown origin) at 0.164 uM relative to control; type: protein-complex assay
[16] = biological target: Phosphorylase b kinase gamma catalytic chain, skeletal muscle/heart isoform (Homo sapiens) (UniProt Q16816); test: Inhibition of PhKg1 (unknown origin) at 0.164 uM relative to control
[17] = system: Mast/stem cell growth factor receptor Kit (Homo sapiens), P10721 [T670I]; test: Inhibition of KIT T670I mutant (unknown origin) at 0.164 uM relative to control
[18] = biological target: Serine/threonine-protein kinase 25 (Homo sapiens) (UniProt O00506); test: Inhibition of YSK (unknown origin) at 0.164 uM relative to control
[19] = biological target: Ribosomal protein S6 kinase alpha-5 (Homo sapiens) (UniProt O75582); test: Inhibition of MSK1 (unknown origin) at 0.164 uM relative to control
[20] = biological target: T1, Mitogen-activated protein kinase 12 (Homo sapiens) (UniProt P53778); test: Inhibition of p38-gamma (unknown origin) at 0.164 uM relative to control
T1 sequence (whole entry): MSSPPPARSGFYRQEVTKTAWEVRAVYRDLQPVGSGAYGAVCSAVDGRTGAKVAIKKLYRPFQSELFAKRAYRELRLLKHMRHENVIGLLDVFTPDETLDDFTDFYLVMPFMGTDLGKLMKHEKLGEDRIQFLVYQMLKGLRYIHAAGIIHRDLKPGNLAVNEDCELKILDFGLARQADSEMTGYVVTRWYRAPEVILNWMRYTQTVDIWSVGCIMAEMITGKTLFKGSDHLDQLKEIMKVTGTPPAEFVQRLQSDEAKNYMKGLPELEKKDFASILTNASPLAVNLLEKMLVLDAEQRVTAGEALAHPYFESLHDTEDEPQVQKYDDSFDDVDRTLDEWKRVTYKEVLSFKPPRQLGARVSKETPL

[21] = biological target: Ephrin type-A receptor 8 (Homo sapiens) (UniProt P29322); test: Inhibition of EPHA8 (unknown origin) at 0.164 uM relative to control
[22] = biological target: T2, cGMP-dependent protein kinase 1 (Homo sapiens) (UniProt Q13976); test: Inhibition of PKG-alpha (unknown origin) at 0.164 uM relative to control
T2 sequence (whole entry): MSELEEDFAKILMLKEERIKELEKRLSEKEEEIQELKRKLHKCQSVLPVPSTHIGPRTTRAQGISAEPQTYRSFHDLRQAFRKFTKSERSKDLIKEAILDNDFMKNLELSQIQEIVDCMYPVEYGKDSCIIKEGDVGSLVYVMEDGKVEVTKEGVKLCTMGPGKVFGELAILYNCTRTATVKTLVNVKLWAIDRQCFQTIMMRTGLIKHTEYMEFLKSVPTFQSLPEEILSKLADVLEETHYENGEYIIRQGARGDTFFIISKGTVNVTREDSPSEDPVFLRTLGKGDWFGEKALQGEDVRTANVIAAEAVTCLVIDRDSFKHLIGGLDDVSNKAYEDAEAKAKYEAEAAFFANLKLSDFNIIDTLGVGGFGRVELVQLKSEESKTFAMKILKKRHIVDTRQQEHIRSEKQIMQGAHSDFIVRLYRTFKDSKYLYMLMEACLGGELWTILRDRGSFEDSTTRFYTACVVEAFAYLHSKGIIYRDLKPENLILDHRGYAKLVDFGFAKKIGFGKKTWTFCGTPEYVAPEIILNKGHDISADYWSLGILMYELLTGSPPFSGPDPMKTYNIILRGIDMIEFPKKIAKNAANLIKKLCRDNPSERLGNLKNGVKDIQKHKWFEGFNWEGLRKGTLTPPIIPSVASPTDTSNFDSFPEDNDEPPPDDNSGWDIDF

[23] = biological target: MAP kinase-activated protein kinase 3 (Homo sapiens) (UniProt Q16644); test: Inhibition of MAPKAPK3 (unknown origin) at 0.164 uM relative to control
[24] = biological target: Homeodomain-interacting protein kinase 4 (Homo sapiens) (UniProt Q8NE63); test: Inhibition of HIPK4 (unknown origin) at 0.164 uM relative to control
[25] = biological target: Mitogen-activated protein kinase 1 (Homo sapiens) (UniProt P28482); test: Inhibition of Erk2 (unknown origin) at 0.45 uM relative to control

Epidermal growth factor receptor (Homo sapiens), sequence (P00533 whole entry): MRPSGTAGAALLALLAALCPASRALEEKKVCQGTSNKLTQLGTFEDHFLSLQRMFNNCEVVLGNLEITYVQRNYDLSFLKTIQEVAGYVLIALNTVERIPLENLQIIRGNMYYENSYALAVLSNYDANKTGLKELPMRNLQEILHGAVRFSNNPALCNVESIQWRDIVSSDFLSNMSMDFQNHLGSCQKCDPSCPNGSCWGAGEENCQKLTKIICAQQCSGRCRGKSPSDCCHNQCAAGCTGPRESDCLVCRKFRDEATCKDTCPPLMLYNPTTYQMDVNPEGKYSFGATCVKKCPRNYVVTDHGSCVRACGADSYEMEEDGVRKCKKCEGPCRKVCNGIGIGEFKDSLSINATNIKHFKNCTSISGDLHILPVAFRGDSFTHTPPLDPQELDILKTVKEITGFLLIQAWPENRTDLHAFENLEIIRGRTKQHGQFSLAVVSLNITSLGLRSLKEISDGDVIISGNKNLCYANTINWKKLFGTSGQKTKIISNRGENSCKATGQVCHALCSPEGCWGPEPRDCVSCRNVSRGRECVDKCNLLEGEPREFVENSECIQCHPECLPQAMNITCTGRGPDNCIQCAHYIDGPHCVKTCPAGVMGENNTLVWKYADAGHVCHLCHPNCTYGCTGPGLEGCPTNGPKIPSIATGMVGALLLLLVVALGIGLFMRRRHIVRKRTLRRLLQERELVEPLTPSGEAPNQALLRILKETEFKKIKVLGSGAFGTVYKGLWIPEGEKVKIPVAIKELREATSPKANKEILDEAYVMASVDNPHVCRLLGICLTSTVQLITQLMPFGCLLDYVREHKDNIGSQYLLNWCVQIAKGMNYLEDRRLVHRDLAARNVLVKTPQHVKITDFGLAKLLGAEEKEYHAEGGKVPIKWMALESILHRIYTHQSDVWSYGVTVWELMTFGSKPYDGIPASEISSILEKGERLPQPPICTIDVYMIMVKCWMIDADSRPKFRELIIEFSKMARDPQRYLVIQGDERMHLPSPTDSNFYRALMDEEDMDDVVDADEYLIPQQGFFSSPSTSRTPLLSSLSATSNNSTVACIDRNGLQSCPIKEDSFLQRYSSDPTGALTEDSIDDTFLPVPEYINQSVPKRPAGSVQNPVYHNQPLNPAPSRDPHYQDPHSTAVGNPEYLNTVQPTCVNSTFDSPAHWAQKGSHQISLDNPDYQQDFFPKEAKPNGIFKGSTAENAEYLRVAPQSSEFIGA
Interleukin-1 receptor-associated kinase 4 (Homo sapiens), sequence (Q9NWZ3 whole entry): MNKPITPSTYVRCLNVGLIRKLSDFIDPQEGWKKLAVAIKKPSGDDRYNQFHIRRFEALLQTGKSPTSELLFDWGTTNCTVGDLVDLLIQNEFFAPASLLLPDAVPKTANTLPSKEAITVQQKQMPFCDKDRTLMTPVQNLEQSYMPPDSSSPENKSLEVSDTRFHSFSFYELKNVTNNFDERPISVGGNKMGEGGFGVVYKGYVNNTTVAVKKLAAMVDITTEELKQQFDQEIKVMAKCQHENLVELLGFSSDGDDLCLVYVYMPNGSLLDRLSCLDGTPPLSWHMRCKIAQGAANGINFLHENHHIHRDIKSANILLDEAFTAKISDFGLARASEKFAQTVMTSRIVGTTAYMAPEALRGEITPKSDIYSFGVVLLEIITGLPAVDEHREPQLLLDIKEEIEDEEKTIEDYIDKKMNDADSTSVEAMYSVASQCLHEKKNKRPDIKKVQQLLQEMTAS
MAP kinase-activated protein kinase 3 (Homo sapiens), sequence (Q16644 whole entry, looked up): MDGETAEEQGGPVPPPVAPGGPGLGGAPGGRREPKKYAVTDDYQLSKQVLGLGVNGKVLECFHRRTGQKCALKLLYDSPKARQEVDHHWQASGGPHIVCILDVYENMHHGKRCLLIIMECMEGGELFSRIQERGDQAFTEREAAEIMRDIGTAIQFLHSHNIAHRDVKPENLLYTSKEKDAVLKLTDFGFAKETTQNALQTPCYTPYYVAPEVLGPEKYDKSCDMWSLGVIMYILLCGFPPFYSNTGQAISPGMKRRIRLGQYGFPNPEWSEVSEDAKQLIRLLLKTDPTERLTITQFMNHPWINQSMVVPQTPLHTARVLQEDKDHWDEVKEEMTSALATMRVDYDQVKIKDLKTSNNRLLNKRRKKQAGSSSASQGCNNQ
Homeodomain-interacting protein kinase 4 (Homo sapiens), sequence (Q8NE63 whole entry): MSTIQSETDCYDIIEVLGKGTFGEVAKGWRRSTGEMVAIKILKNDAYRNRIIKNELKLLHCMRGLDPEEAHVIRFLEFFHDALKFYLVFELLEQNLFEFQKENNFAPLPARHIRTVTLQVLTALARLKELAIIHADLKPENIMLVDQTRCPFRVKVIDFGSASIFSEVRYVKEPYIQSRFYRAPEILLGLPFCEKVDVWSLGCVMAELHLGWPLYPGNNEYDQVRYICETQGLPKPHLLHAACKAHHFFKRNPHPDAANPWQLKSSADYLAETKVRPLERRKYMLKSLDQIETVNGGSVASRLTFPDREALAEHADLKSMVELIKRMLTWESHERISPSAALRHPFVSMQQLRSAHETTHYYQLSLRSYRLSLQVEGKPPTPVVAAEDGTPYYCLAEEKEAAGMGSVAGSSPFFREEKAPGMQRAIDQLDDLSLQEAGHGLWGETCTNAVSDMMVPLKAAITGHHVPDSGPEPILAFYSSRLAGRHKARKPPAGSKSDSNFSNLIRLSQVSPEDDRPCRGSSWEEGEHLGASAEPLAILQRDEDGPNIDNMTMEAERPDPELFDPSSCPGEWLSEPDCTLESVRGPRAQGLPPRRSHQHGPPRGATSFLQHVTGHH
Epidermal growth factor receptor (Homo sapiens), P00533 [T790M], sequence (P00533 whole entry T790M, canonical isoform): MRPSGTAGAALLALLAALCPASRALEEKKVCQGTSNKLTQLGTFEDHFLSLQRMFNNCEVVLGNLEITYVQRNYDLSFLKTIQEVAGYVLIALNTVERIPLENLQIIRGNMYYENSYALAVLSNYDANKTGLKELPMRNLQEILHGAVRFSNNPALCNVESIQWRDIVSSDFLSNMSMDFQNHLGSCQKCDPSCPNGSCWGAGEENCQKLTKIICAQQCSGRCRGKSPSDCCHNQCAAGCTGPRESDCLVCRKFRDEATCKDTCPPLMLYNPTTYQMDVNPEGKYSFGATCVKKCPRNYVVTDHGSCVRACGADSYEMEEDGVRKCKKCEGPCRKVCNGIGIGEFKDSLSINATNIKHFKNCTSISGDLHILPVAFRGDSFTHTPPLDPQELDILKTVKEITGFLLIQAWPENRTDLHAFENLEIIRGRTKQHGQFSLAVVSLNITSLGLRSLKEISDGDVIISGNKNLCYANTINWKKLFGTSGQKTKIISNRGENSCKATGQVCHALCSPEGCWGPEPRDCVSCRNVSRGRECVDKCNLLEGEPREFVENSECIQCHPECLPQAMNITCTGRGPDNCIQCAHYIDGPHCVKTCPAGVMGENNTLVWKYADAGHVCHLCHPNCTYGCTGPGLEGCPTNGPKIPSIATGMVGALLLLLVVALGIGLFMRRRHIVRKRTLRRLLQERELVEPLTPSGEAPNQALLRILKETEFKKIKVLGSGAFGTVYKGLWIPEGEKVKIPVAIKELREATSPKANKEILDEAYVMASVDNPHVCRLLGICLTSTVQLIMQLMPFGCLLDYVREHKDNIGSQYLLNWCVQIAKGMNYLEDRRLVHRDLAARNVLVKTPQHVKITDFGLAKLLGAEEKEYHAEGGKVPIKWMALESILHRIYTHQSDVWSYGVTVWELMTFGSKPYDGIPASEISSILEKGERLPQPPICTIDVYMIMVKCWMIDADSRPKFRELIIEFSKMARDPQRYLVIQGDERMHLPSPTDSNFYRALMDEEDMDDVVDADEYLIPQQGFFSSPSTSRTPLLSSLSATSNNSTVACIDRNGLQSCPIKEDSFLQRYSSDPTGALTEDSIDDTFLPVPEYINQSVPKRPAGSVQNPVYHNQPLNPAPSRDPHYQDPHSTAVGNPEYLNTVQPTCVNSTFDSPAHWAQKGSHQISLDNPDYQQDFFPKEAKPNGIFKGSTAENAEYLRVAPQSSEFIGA
Mast/stem cell growth factor receptor Kit (Homo sapiens), P10721 [T670I], sequence (P10721 whole entry T670I): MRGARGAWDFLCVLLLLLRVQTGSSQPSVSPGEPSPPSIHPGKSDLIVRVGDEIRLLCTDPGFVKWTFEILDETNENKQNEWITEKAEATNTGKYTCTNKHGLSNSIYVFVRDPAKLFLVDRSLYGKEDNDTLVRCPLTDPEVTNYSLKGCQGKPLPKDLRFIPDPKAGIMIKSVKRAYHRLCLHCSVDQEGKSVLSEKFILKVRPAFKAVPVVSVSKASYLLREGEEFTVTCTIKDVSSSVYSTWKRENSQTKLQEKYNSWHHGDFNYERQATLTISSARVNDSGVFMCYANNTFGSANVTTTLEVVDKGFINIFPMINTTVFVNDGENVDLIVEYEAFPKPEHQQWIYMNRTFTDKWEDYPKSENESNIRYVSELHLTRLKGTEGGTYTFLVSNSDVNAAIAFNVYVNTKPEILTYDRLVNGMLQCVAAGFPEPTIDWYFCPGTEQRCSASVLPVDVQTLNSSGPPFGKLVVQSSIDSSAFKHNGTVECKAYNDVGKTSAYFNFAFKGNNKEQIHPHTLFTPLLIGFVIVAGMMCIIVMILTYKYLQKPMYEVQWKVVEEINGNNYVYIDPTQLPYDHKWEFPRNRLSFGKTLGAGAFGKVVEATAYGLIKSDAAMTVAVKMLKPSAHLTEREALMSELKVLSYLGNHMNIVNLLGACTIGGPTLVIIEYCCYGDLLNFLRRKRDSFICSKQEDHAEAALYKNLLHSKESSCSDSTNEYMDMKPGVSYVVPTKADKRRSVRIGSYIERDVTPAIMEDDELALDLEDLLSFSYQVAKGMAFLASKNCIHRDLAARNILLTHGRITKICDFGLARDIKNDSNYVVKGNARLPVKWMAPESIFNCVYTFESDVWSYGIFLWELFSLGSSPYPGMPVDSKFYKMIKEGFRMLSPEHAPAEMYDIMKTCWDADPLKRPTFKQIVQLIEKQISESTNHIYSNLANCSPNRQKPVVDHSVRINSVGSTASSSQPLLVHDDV

inhibition [2]: -1.7%
inhibition [3]: 4.3%
inhibition [4]: 42%
inhibition [5]: 93.7%
inhibition [6]: 0.7%
inhibition [7]: 3.3%
inhibition [8]: 3%
Compound: Cc1[nH]nc(C2CC2)c1-c1ccc2c(-c3ccc(N4CCN(C)CC4)nc3)n[nH]c2c1
inhibition [1]: -3%

inhibition [9]: 7.3%
inhibition [10]: 1.3%
inhibition [11]: 6%
inhibition [12]: -2%
inhibition [13]: -3.3%
inhibition [14]: 4.7%
inhibition [15]: 10.7%
inhibition [16]: 1%
inhibition [17]: 1%
inhibition [18]: -2.7%
inhibition [19]: 7.7%
inhibition [20]: 0.3%
inhibition [21]: -1.7%
inhibition [22]: 0.7%
inhibition [23]: 6.3%
inhibition [24]: -4%
Compound: COC(=O)Nc1cc(-c2c(C3CC3)n[nH]c2C)cc2[nH]ncc12

inhibition [25]: -0.3%
Compound: Cc1n[nH]c(C)c1-c1ccc2c(NC(=O)c3ccc(N4CCN(C)CC4)cc3)n[nH]c2c1
